This is an account of results in patent publication US20080207521A1, “PEPTIDE LIGAND TO IMPAIR CANCER CELL MIGRATION” (priority 2005, published 2008).

For one test, the system named is DDR1. The test is described as follows: Collagen-induced DDR1 phosphorylation in Wnt-5a antisense HB2 cells (immunoprecipitation/Western blot). It is filed as cell-based, human. The following applies: crude peptide (approximately 65% pure) 100 μM; 90 min on collagen I. The protocol: The phosphorylation status of DDR1 was analyzed as previously described (12), with the following modifications. After serum-depletion for 16 h, the cells were detached with Versene and then allowed to adhere to collagen I for 60 (MDA-MB-468) or 90 min (HB2) at 37° C. The experiments were terminated by lysing both adherent and non-adherent cells with a lysis buffer (50 mM Tris pH 7.4, 1% Triton-X, 5 mM EDTA, 5 mM EGTA, 50 mM NaCl, 10 μg/ml aprotinin, 2.5 mM benzamidine, 1 mM pefabloc, 1 μg/ml leupeptin and 1 mM Na3VO4). For immunoblotting an anti-DDR1 rabbit polyclonal Ab, sc-532 (Santa Cruz Biotech, Santa Cruz, Calif.) was used at a dilution of 1:10,000. The Ab recognizes DDR1b/c, which is essential because collagen only induces phosphorylation of the b or c isoforms of DDR1 in mammary epithelial cells (10).
Effects of crude peptides on collagen-induced DDR1 phosphorylation in Wnt-5a antisense HB2 cells. Single cells were allowed to adhere to collagen I-coated plates in the presence of the indicated crude peptide (100 μM). (A) Experiments performed in the presence of peptides 167-173. (B) Experiments performed in the presence of peptides 175-180. After 90 min the cells were lysed and DDR1 immunoprecipitated. Subsequently, the immunoprecipitates were subjected to Western blot analysis with an anti-phosphotyrosine Ab and then, after stripping, with an anti-DDR1 Ab to ascertain equal loading. The blots shown are representative of 3 separate experiments The diagrams show densitometric analysis of DDR1 phosphorylation, expressed as per cent of control.

The next test concerns MDA-MB-468 cells. The test is described as follows: Migration of MDA-MB-468 cells in modified Boyden chamber. The conditions noted are these: 18 h; for migration: pure peptide 100 μM. It is filed as cell-based, human. The protocol:
The HB2 mammary epithelial cell line, a subclone of the MTSV-1.7 cell line, originating from the laboratory of Dr. J. Taylor-Papadimitriou (11) was used. The HB2 cells were cultured in DMEM supplemented with 10% FBS, 5 U/mi penicillin, 0.5 U/ml streptomycin, 2 mM glutamine, 10 μg/ml bovine insulin and 5 μg/ml hydrocortisone. The human mammary carcinoma cell lines MCF-7 and MDA-MB-468 were cultured in DMEM supplemented with 10% FBS, 5 U/ml penicillin, 0.5 U/ml streptomycin and 2 mM glutamine. The pH-experiments were done in MEM supplemented with 10 mM Tris, 0.5% BSA, 5 U/ml penicillin, 0.5 U/ml streptomycin and 2 mM glutamine. The pH 7.4-medium was further supplemented with 4 mM sodium bicarbonate whereas the pH 6.7-medium was not. All cells were incubated at 37° C. in 95% air and 5% CO2.
Cell migration analyses were performed in a modified Boyden chamber with a polycarbonate membrane (10 μm thick with a porous diameter of 8.0 μm) separating the two chambers (Transwell®; Costar, Cambridge, Mass.). As indicated in some experiments the membranes were coated with collagen by adding collagen-I (10 μg/ml) diluted in 0.25% acetic acid to the upper chamber for 1 h at 37° C., after which it was washed three times with PBS. Each experiment was initiated by detaching the cells by Versene treatment for 10-20 min at 37° C., washed, and re-suspended as a single cell suspension in serum-free DMEM medium supplemented with 0.5% BSA. Together with the indicated agonist a 0.2 ml cell suspension (containing 25,000 MDA-MB-468 or 50,000 HB2 cells) was then added to the upper chamber of the transwell. The lower chamber was filled with 0.6 ml serum-free but BSA-containing DMEM medium supplemented with 1 ng/ml of the chemoattractant IGF-I. As a control, IGF-I was excluded in some wells in each separate experiment. The cells were allowed to migrate in the Boyden chamber for 18 h at 37° C. in a humidified atmosphere of 95% air and 5% CO2. The experiments were terminated by removing the non-migratory cells with a cotton-tipped applicator from the upper surface of the membranes. The remaining cells on the lower surface that had migrated through the membrane were stained for 20 min with 0.5% crystal violet diluted in 20% methanol/80% water. After washing the membranes the number of stained cells per membrane and well was counted in an inverted microscope. The value from each separate experiment represents the median value of three individual wells.
Peptide-induced effects on MDA-MB-468 tumour cell migration and their content of F-actin. (A) The cells were allowed to migrate for 18 h in the absence or presence of the indicated peptides (100 μM) The data in panel A are expressed as means±SEM of 8 separate experiments, each performed in triplicate. * p<0.05. (B) The cells were allowed to adhere to collagen I-coated cover glasses for 18h in the absence or presence of peptide 175 (100 μM). The cells were then stained with Alexa488-Phalloidin as described in the methods section. The illustrated micrographs are representative of 5 separate experiments.
Effects of peptide 175 modifications on its ability to induce MDA-MB-468 tumour cell adhesion and migration. (A) The cells were allowed to adhere for 60 min to collagen-I coated wells in the absence or presence of peptide 175, three stepwise N-terminal deletion variants of peptide 175 or a formylated version of the tested hexapeptide derived from peptide 175. The amounts of adhesive cells were analyzed as described in the methods and the results are given as means±SEM of 6 separate experiments. (B and C) The cells were allowed to migrate for 18 h in the absence or presence of 1 or 10 μM of peptide 175 (B) or the formylated hexapeptide (C). The data are given as means±SEM of 6 separate experiments, each performed in triplicate. * p<0.05, p<0.01.
Effects of Frz-5 receptor blocking and reduced pH on the abilities of the formylated hexapeptide and Wnt-5a to inhibit tumour cell migration. […]

As to “ADFRKVGDALKEKYD [peptide 169, Wnt-5a aa 242-256]”, the DDR1 phosphorylation entry in the test on DDR1 is on record as “significant DDR1 phosphorylation”. Moreover, in the test with MDA-MB-468 cells, the migration result was “significantly decreased the migration”.
As to “NKTSEGMDGCEL (Human) [peptide 175, Wnt-5a aa 311-322]”, the DDR1 phosphorylation result with DDR1 was “significant DDR1 phosphorylation”. In addition, the “motility (migration)” value with MDA-MB-468 cells (10 μM) was “significantly impaired the motility”. In the test with MDA-MB-468 cells, the migration entry is “significantly decreased the migration”.
Consider “SQLAGLSQGQKKL [peptide 171, Wnt-5a aa 55-67; negative control]”, for which the DDR1 phosphorylation entry in the test on DDR1 is listed as “no DDR1 phosphorylation”. Further, the migration result in the test with MDA-MB-468 cells was “no statistically significant effect”.
